Some test systems named below: HT29 colon; MDA-MB-231 breast; OVCAR-8 ovarian; HL-60(TB) leukemia; MDA-MB-435; SR leukemia; PC-3 prostate; A549 NSCLC; T-47D breast; NCI-H23 lung.
Common to all, as to test: growth of human tumour cells (NCI), 48 h

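48-hour exposure; five concentrations; linearly interpolated endpoints. At the GI50, growth is halved. TGI: total growth inhibition.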

These results are taken from PubChem BioAssay (NCI).

For `COc1ccc(Nn2c(SCC(=O)Nc3nc(-c4ccc(Cl)cc4)cs3)nc(C)c2C)cc1`, the GI50 in the experiment on HT29 colon was 4.61 µM; with MDA-MB-231 breast, 8.37 µM; with OVCAR-8 ovarian it was 4.82 µM; in the experiment on HL-60(TB) leukemia, 2.24 µM; with MDA-MB-435, 3.22 µM; with SR leukemia it was 7.02 µM. Moreover, the GI50 in the experiment with PC-3 prostate was 2.65 µM; in the experiment on A549 NSCLC, 3.32 µM; in the experiment on T-47D breast it was 1.23 µM; with NCI-H23 lung, 1.53 µM. Also, the TGI in the experiment on HT29 colon was 50.4 µM; with MDA-MB-231 breast it was above 100 µM; in the experiment on OVCAR-8 ovarian, above 100 µM; in the experiment on HL-60(TB) leukemia it was 59.1 µM; with MDA-MB-435, above 100 µM; in the experiment on SR leukemia, above 100 µM. The TGI is above 100 µM in the experiment with PC-3 prostate, above 100 µM with A549 NSCLC, 8.04 µM in the experiment with T-47D breast and above 100 µM with NCI-H23 lung.
On to `COc1ccc(NC(=O)n2nc(N)c3ccccc32)cc1OC`, for which the GI50 in the experiment with HT29 colon was 48.2 µM; with MDA-MB-231 breast, 53.6 µM; in the experiment on OVCAR-8 ovarian it was 39.7 µM; with HL-60(TB) leukemia, 27.9 µM; in the experiment on MDA-MB-435, above 100 µM; with SR leukemia it was 29.3 µM. In addition, the GI50 in the experiment with PC-3 prostate is 35.5 µM; in the experiment on A549 NSCLC it was 45.8 µM; with T-47D breast, 33 µM; in the experiment with NCI-H23 lung it was 83.5 µM. In addition, the TGI with HT29 colon, in the experiment on MDA-MB-231 breast, in the experiment with OVCAR-8 ovarian, in the experiment with HL-60(TB) leukemia, in the experiment with MDA-MB-435 and in the experiment with SR leukemia was above 100 µM each time. For the same compound, the TGI with PC-3 prostate, in the experiment on A549 NSCLC, in the experiment on T-47D breast and in the experiment on NCI-H23 lung was above 100 µM in each case.
Take `C=C(C)[C@@H]1CC[C@]2(C)[C@H](C(=O)C=C3[C@@H]4C[C@](C)(C(=O)N5CCN(C)CC5)CC[C@]4(C)CC[C@]32C)[C@@]1(C)CCC#N`: the GI50 in the experiment with HT29 colon was 2.38 µM; with MDA-MB-231 breast, 7.58 µM; with OVCAR-8 ovarian, 8.12 µM; in the experiment on HL-60(TB) leukemia, 4.19 µM; with MDA-MB-435, 7.33 µM; with SR leukemia, 1.78 µM. The GI50 in the experiment with PC-3 prostate was 3.17 µM; in the experiment with A549 NSCLC it was 7.12 µM; in the experiment with T-47D breast, 4.42 µM; in the experiment with NCI-H23 lung, 6.97 µM. Also, the TGI with HT29 colon was 8.49 µM; in the experiment on MDA-MB-231 breast it was 14.6 µM; with OVCAR-8 ovarian it was 16.2 µM; with HL-60(TB) leukemia it was 11.8 µM; in the experiment on MDA-MB-435, 14.2 µM; in the experiment on SR leukemia it was 9.07 µM. In addition, the TGI in the experiment with PC-3 prostate turned out to be 10.4 µM; in the experiment on A549 NSCLC it was 14.5 µM; with T-47D breast it was 13.4 µM; in the experiment on NCI-H23 lung, 14.3 µM.
In the case of `Cc1nc2sccn2c(=O)c1CCN1CCC(=C(c2ccc(F)cc2)c2ccc(F)cc2)CC1`, the GI50 is 5.37 µM with HT29 colon; 15.2 µM in the experiment on MDA-MB-231 breast; 17 µM in the experiment with OVCAR-8 ovarian; 5.92 µM in the experiment on HL-60(TB) leukemia; 14.2 µM with MDA-MB-435; 0.551 µM with SR leukemia. For the same compound, the GI50 in the experiment on PC-3 prostate was 4.81 µM; with A549 NSCLC, 12.9 µM; with T-47D breast, 11.7 µM; with NCI-H23 lung, 13.2 µM. In addition, the TGI with HT29 colon turned out to be 19 µM; with MDA-MB-231 breast it was 31.9 µM; in the experiment with OVCAR-8 ovarian, 41 µM; with HL-60(TB) leukemia, 26.5 µM; in the experiment on MDA-MB-435 it was 28.2 µM; in the experiment on SR leukemia it was 26.7 µM. In addition, the TGI with PC-3 prostate was 19.3 µM; in the experiment with A549 NSCLC, 29.1 µM; in the experiment with T-47D breast it was 28.9 µM; in the experiment with NCI-H23 lung it was 29 µM.
As for `O=[N+]([O-])c1ccc(-c2nc(-c3ccccc3)c(-c3ccccc3)n2-c2ccccc2)cc1`, the GI50 was 1.75 µM in the experiment with HT29 colon; 2.36 µM in the experiment with MDA-MB-231 breast; 3.19 µM with OVCAR-8 ovarian; 2.41 µM in the experiment on HL-60(TB) leukemia; 2.5 µM in the experiment on MDA-MB-435; 6.2 µM with SR leukemia. The GI50 is 2.74 µM in the experiment with PC-3 prostate, 3.01 µM with A549 NSCLC, 2.19 µM with T-47D breast and 2.62 µM in the experiment with NCI-H23 lung. The TGI in the experiment on HT29 colon is 3.37 µM; in the experiment on MDA-MB-231 breast, 7.04 µM; with OVCAR-8 ovarian, above 100 µM; with HL-60(TB) leukemia, 5.83 µM; in the experiment on MDA-MB-435, 7.63 µM; in the experiment with SR leukemia, above 100 µM. Also, the TGI in the experiment on PC-3 prostate is above 31.1 µM; with A549 NSCLC, 12.6 µM; with T-47D breast, 7.29 µM; in the experiment with NCI-H23 lung, 11.3 µM.
Take `CSc1cnn(CCC#N)c(=O)n1`: the TGI with HT29 colon, in the experiment on MDA-MB-231 breast, in the experiment with OVCAR-8 ovarian, in the experiment on HL-60(TB) leukemia, with MDA-MB-435 and with SR leukemia was above 100 µM throughout. The TGI in the experiment with PC-3 prostate, in the experiment on A549 NSCLC, with T-47D breast and in the experiment with NCI-H23 lung was above 100 µM each time.
`COc1ccc(/C(Cl)=C(\C=O)c2ccc([N+](=O)[O-])cc2)cc1OC`: the TGI is above 30.5 µM with HT29 colon; 83.9 µM with MDA-MB-231 breast; above 86 µM in the experiment with OVCAR-8 ovarian; 11.6 µM with HL-60(TB) leukemia; 13.5 µM in the experiment with MDA-MB-435; 83.3 µM with SR leukemia. Further, the TGI in the experiment on PC-3 prostate is 48.1 µM; in the experiment with A549 NSCLC, above 100 µM; in the experiment on T-47D breast, above 100 µM; in the experiment with NCI-H23 lung, 15.8 µM.
Regarding `NC(CSC(c1ccccc1)(c1ccccc1)c1ccc(Cl)cc1)C(=O)O` (stereo not given), the GI50 is 0.347 µM with HT29 colon; 0.442 µM in the experiment with MDA-MB-231 breast; 0.412 µM with OVCAR-8 ovarian; 0.24 µM in the experiment with HL-60(TB) leukemia; 0.0344 µM in the experiment with MDA-MB-435; 0.121 µM with SR leukemia. Also, the GI50 in the experiment with PC-3 prostate is 0.342 µM; with A549 NSCLC, 0.468 µM; with T-47D breast, 0.376 µM; with NCI-H23 lung it was 0.487 µM. Also, the TGI in the experiment with HT29 colon was 6.92 µM; in the experiment on MDA-MB-231 breast, 35.8 µM; with OVCAR-8 ovarian, 44.8 µM; in the experiment with HL-60(TB) leukemia, 0.724 µM; in the experiment on MDA-MB-435, 0.158 µM; with SR leukemia, 5.93 µM. Also, the TGI in the experiment with PC-3 prostate is 32.6 µM; in the experiment with A549 NSCLC it was above 62 µM; in the experiment on T-47D breast it was 42 µM; in the experiment on NCI-H23 lung, 41.9 µM.
